Measured values: patent US20100022559A1, “BISOXIMES AS FUNGICIDES” (BAYER CROPSCIENCE AG, priority 2006, published 2010)
One block for each molecule: values may come before it.

Experiment: logP determination by HPLC on a reversed-phase column (C 18), EEC Directive 79/831 Annex V.A8
Assay type: physicochemical
Protocol: The stated logP values were determined in accordance with EEC Directive 79/831 Annex V.A8 by HPLC (high performance liquid chromatography) on a reversed-phase column (C 18). Temperature: 43° C.

[1] = [b] LC-MS, acidic range, pH 2.7, 0.1% aqueous formic acid and acetonitrile
[2] = [c] LC-MS, neutral range, pH 7.8, 0.001 molar aqueous ammonium bicarbonate solution and acetonitrile
[3] = [a] acidic range, pH 2.3, 0.1% aqueous phosphoric acid and acetonitrile
[4] = method marker [a] (footnote not shown), isomer A / isomer B / isomer mixture as noted in the cell
[5] = method marker [b], isomer A / isomer B / isomer mixture as noted in the cell

Compound: CC(=NOC1CCC(ON=C(C)c2cccc(C3CC3)n2)C1)c1cccc(C2CC2)n1 (mixture of isomers) [compound 813]
- logP (value marked [a]): 7.36^[a]

Compound: CC(=NOCC(C)CON=C(C)c1ccc(C)c(C)n1)c1cc(C)cc(C)n1 (racemic) [Compound 694]
- logP (method marked [b] in Table 1): 2.63^[b]
- logP (method marked [c] in Table 1): 6.17^[c]

Compound: C/C(=N\OCC(C)CON)c1cccc(-c2cccc(C)n2)n1 (racemic) [XII-5]
- logP [1]: 1.35^[b]
- logP [2]: 3.36^[c]

Compound: C/C(=N\OCC(C)CON)c1ccc(C)c(C)n1 (racemic) [XII-7]
- logP [3]: 0.37^[a]
- logP [1]: 0.37^[b]
- logP [2]: 2.49^[c]

Compound: C/C(=N\OCC(C)CON)c1cc(C)cc(C)n1 (racemic) [XII-9]
- logP [3]: 0.49^[a]
- logP [1]: 0.49^[b]

Compound: C/C(=N\OCC(C)CON)c1cccc(C)n1 (racemic) [XII-11]
- logP [3]: 0.7^[a]
- logP [1]: 0.7^[b]
- logP [2]: 2.15^[c]

Compound: C/C(=N\OCC(C)CON)c1cc(C(F)(F)F)cc(C)n1 (racemic) [XII-15]
- logP [3]: 2.33^[a]
- logP [1]: 2.33^[b]
- logP [2]: 3.38^[c]

Compound: CC(=NOCC1(CON=C(C)c2cccc(C)n2)CCO1)c1ccccn1 (racemic) [compound 26]
- logP [4]: 2.29^[a]
- logP [5]: 2.43^[b]

Compound: CC(=NOCC1OC1CON=C(C)c1cccc(C)n1)c1cccc(C)n1 (racemic) [compound 286]
- logP (value marked [b]): 2.08^[b]

Compound: CCC1=NOC(CON=C(CC)c2ccc(C)cn2)(CON=C(CC)c2cccc(C)n2)C1 (racemic) [compound 607]
- logP (method marked [b] in Table 1): 4.04^[b]

Compound: CC(=NOCC(C)CON=C(C)c1cc(Cl)cc(C)n1)c1cc(C)cc(C)n1 (racemic) [compound 878]
- logP (value marked [a]): 5,69^[a]
- logP (value marked [b]): 5.69^[b]
- logP (value marked [c]): 7.32^[c]

Compound: C=C(CON=C(C)c1ccccn1)CON=C(C)c1cccc(C)n1 (single isomer, unassigned) [Compound 17]
- logP [5]: 3.10^[b] (isomer A)

Compound: Cc1cccc(C(=NOCCCON=C(c2cccc(C)n2)C(C)C)C(C)C)n1 (single isomer, unassigned) [Compound 88]
- logP [4]: 5.52^[a] (isomer B)

Compound: Cc1cccc(C(=NOCC(C)CON=C(c2cccc(C)n2)C2CC2)C2CC2)n1 (single isomer, unassigned) [Compound 164]
- logP [4]: 3.51^]a] (isomer B)

Compound: C=C(CON=C(C)c1cccc(C)n1)CON=C(C)c1nc(C)cc(OC)n1 (single isomer, unassigned) [Compound 177]
- logP [5]: 3.08^[b] (isomer A)

Compound: C=C(CON=C(C)c1cccc(C)n1)CON=C(C)c1ncccc1C (single isomer, unassigned) [Compound 203]
- logP [5]: 3.03^[b] (isomer A)

Compound: CC(=NOCC(C)CON=C(C)c1nc(C)ccc1C)c1nc(C)ccc1C (single isomer, unassigned) [Compound 267]
- logP (value marked [b]): 2.5^[b] (isomer B)

Compound: C=C(CON=C(c1cccc(C)n1)C1CC1)CON=C(c1cccc(C)n1)C1CC1 (single isomer, unassigned) [Compound 311]
- logP (value marked [a]): 3.29^[a] (isomer B)

Compound: C=C(CON=C(C)c1cccc(C)n1)CON=C(C)c1cc(OC)cc(C)n1 (single isomer, unassigned) [Compound 476]
- logP (value marked [b]): 3.33^[b] (isomer B)

Compound: C=C(CON=C(C)c1cccc(C)n1)CON=C(c1cccc(C)n1)C(C)C (single isomer, unassigned) [Compound 672]
- logP (method marked [b] in Table 1): 3.87^[b] (isomer A)

Compound: CC(=NOCC(CON=C(C)c1nc(C)ccc1C)C(C)C)c1nc(C)ccc1C (single isomer, unassigned) [Compound 753]
- logP (method marked [b] in Table 1): 4.51^[b]
- logP (method marked [c] in Table 1): 5.95^[c]

Compound: CC(=NOCC1(CON=C(C)c2nc(C)ccc2C)CCCC1)c1nc(C)ccc1C (single isomer, unassigned) [Compound 763]
- logP (value marked [b]): 4.76^[b]
- logP (value marked [c]): 6.32^[c]

Compound: C=C(CON=C(C)c1nc(C)c(C)s1)CON=C(C)c1nc(C)c(C)s1 (single isomer, unassigned) [compound 68]
- logP [5]: 5.25^[b]

Compound: C=C(CON=C(C)c1nc(C)c(C)s1)CON=C(C)c1nc(C)c(C)s1 (single isomer, unassigned) [compound 69]
- logP [5]: 4.99^[b] (isomer A)

Compound: C=C(CON=C(C)c1cccs1)CON=C(C)c1cccs1 (single isomer, unassigned) [compound 77]
- logP [5]: 4.84^[b] (isomer B)

Compound: C=C(CON=C(C)c1cccs1)CON=C(C)c1cccs1 (single isomer, unassigned) [compound 79]
- logP [5]: 4,56^[b] (isomer A)

Compound: Cc1cccc(C(=NOCCCON=C(c2cccc(C)n2)C(C)C)C(C)C)n1 (single isomer, unassigned) [compound 89]
- logP [4]: 4.45^[a] (isomer A)

Compound: C=C(CON=C(C)c1cccc(C)n1)CON=C(C)c1ncc(C(F)(F)F)cc1Cl (single isomer, unassigned) [compound 135]
- logP [5]: 4.95^[b] (isomer B)

Compound: C=C(CON=C(C)c1cccc(C)n1)CON=C(C)c1ncccc1Cl (single isomer, unassigned) [compound 139]
- logP [5]: 3.39^[b] (isomer B)

Compound: C=C(CON=C(C)c1cccc(C)n1)CON=C(C)c1ncccc1Cl (single isomer, unassigned) [compound 140]
- logP [5]: 4.40^[b] (isomer A)

Compound: C=C(CON=C(C)c1cccc(C)n1)CON=C(C)c1ncc(C(F)(F)F)cc1Cl (single isomer, unassigned) [compound 157]
- logP [5]: 4.42^[b] (isomer A)

Compound: Cc1cccc(C(=NOCC(C)CON=C(c2cccc(C)n2)C2CC2)C2CC2)n1 (single isomer, unassigned) [compound 162]
- logP [4]: 3.28^[a] (isomer A)

Compound: C=C(CON=C(C)c1cccc(C)n1)CON=C(C)c1ccc(Cl)s1 (single isomer, unassigned) [compound 195]
- logP [5]: 4.82^[b] (isomer A)

Compound: C=C(CON=C(C)c1ccc(C)nc1)CON=C(C)c1cccc(C)n1 (single isomer, unassigned) [compound 200]
- logP [5]: 1.92^[b] (isomer A)

Compound: CC(=NOCC(C)CON=C(C)c1nc(C)ccc1C)c1nc(C)ccc1C (single isomer, unassigned) [compound 268]
- logP (value marked [b]): 2.08^[b] (isomer A)

Compound: C=C(CON=C(c1cccc(C)n1)C(C)C)CON=C(c1cccc(C)n1)C(C)C (single isomer, unassigned) [compound 274]
- logP (value marked [a]): 4.87^[a] (isomer B)

Compound: C=C(CON=C(c1cccc(C)n1)C(C)C)CON=C(c1cccc(C)n1)C(C)C (single isomer, unassigned) [compound 275]
- logP (value marked [a]): 4.90^[a] (isomer A)

Now from value to molecule:

- logP [4]: 4.89^[a] (isomer A)
Compound: Cc1cccnc1C(Cc1ccccc1)=NOCCCON=C(Cc1ccccc1)c1ncccc1C (single isomer, unassigned) [Compound 97]

- logP [4]: 7.08^[a] (isomer B)
Compound: Cc1cccc(C(CC(C)C)=NOCCCON=C(CC(C)C)c2cccc(C)n2)n1 (single isomer, unassigned) [Compound 115]

- logP (value marked [b]): 3.61^[b] (isomer A)
Compound: CCCC(=NOCCCCON=C(C)c1cccc(C)n1)c1ncccc1C (single isomer, unassigned) [Compound 327]

- logP [4]: 2.51^[a] (isomer B)
Compound: CC(=NOCCCON=C(C)c1ncccc1C)c1ncccc1C (single isomer, unassigned) [compound 84]

- logP [4]: 2.15^[a] (isomer A)
Compound: CC(=NOCCCON=C(C)c1ncccc1C)c1ncccc1C (single isomer, unassigned) [compound 85]

- logP [4]: 3.65^[a] (isomer B)
Compound: CCC(=NOCCCON=C(CC)c1ncccc1C)c1ncccc1C (single isomer, unassigned) [compound 94]

- logP [4]: 3.11^[a] (isomer A)
Compound: CCC(=NOCCCON=C(CC)c1ncccc1C)c1ncccc1C (single isomer, unassigned) [compound 95]

- logP [4]: 5.54^[a] (isomer B)
Compound: Cc1cccnc1C(Cc1ccccc1)=NOCCCON=C(Cc1ccccc1)c1ncccc1C (single isomer, unassigned) [compound 96]

- logP [4]: 4.83^[a] (isomer B)
Compound: CCCC(=NOCCCON=C(CCC)c1ncccc1C)c1ncccc1C (single isomer, unassigned) [compound 98]

- logP [4]: 4.22^[a] (isomer A)
Compound: CCCC(=NOCCCON=C(CCC)c1ncccc1C)c1ncccc1C (single isomer, unassigned) [compound 99]

- logP [4]: 3.58^[a] (isomer A)
Compound: CCC(=NOCC(C)CON=C(CC)c1ncccc1C)c1ncccc1C (single isomer, unassigned) [compound 100]

- logP [4]: 4.23^[a] (isomer B)
Compound: CCC(=NOCC(C)CON=C(CC)c1ncccc1C)c1ncccc1C (single isomer, unassigned) [compound 101]

- logP [4]: 6.50^[a] (isomer B)
Compound: Cc1cccnc1C(CC(C)C)=NOCC(C)CON=C(CC(C)C)c1ncccc1C (single isomer, unassigned) [compound 102]

- logP [4]: 5.32^[a] (isomer A)
Compound: Cc1cccnc1C(Cc1ccccc1)=NOCC(C)CON=C(Cc1ccccc1)c1ncccc1C (single isomer, unassigned) [compound 108]

- logP [4]: 6.00^[a] (isomer B)
Compound: Cc1cccnc1C(Cc1ccccc1)=NOCC(C)CON=C(Cc1ccccc1)c1ncccc1C (single isomer, unassigned) [compound 109]

- logP [4]: 5.78^[a] (isomer A)
Compound: Cc1cccnc1C(CC(C)C)=NOCC(C)CON=C(CC(C)C)c1ncccc1C (single isomer, unassigned) [compound 110]

- logP [4]: 5.92^[a] (isomer A)
Compound: Cc1cccc(C(CC(C)C)=NOCCCON=C(CC(C)C)c2cccc(C)n2)n1 (single isomer, unassigned) [compound 114]

- logP [5]: 3.84^[b] (isomer )B
Compound: C=C(CON=C(C)c1cccc(C)n1)CON=C(CC)c1ncccc1C (single isomer, unassigned) [compound 142]

- logP [5]: 3.23^[b] (isomer A)
Compound: C=C(CON=C(C)c1cccc(C)n1)CON=C(CC)c1ncccc1C (single isomer, unassigned) [compound 143]

- logP [5]: 4.40^[b] (isomer A)
Compound: C=C(CON=C(C)c1cccc(C)n1)CON=C(CC(C)C)c1ncccc1C (single isomer, unassigned) [compound 155]
